From patent publication US10167257B2, “Indole derivatives for use in medicine” (IOmet Pharma Ltd., priority 2014, dated 2019) come the findings set out here.

One experiment addresses T1, IDO (SKOV-3 cells) (Homo sapiens, UniProt P14902).
T1 construct: This assay utilised cancer cells which expressed either TDO or IDO; host or cells: SKOV-3 ovary adenocarcinoma cells, IFNγ-induced
The experiment in a line: IDO cell-based assay (SKOV-3, IFNγ-induced), kynurenine production. The conditions noted are these: SKOV-3 ovary adenocarcinoma cells, IFNγ 500 ng/ml, 500 μM L-Trp, 48 h, kynurenine by absorbance at 490 nm. The procedure, abridged: (§1)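 SKOV-3 cells (IDO, induced with 500 ng/ml IFNγ) or A172 glioblastoma cells (TDO) were incubated with compound and 500 μM L-Trp for 48 h at 37 °C in phenol-red-free RPMI with dialysed serum. Supernatant kynurenine was measured with 1% Ehrlich's reagent as absorbance at 490 nm.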

A further experiment concerns the target T2, TDO (A172 cells) (Homo sapiens, UniProt P48775).
T2 construct: This assay utilised cancer cells which expressed either TDO or IDO; host or cells: A172 human glioblastoma cells
The experiment in a line: TDO cell-based assay (A172), kynurenine production. The following applies: A172 human glioblastoma cells, 500 μM L-Trp, 48 h, kynurenine by absorbance at 490 nm. The procedure, abridged: as §1

T2 sequence (P48775 whole entry): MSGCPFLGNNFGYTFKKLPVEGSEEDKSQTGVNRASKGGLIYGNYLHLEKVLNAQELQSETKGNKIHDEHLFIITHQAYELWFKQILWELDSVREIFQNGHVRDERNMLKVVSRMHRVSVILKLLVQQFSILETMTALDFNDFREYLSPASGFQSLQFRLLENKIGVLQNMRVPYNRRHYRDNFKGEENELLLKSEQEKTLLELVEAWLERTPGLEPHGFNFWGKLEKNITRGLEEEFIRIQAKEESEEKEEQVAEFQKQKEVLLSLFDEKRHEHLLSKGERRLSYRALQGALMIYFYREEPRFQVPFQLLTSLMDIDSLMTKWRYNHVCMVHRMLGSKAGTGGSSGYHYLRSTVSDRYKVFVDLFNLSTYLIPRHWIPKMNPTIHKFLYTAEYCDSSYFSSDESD
T1 sequence (P14902 whole entry): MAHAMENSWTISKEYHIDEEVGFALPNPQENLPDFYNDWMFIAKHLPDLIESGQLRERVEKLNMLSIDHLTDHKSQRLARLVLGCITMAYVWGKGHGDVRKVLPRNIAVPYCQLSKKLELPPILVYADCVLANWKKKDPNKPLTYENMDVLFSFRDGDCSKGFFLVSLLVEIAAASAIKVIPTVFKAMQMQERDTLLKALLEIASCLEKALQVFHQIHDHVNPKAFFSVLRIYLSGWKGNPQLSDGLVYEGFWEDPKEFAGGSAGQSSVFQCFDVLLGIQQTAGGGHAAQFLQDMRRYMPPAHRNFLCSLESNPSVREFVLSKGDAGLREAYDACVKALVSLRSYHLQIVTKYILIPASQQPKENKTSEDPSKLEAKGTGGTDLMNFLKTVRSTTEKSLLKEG

As for `O=C(NC1(c2ncccn2)CC1)c1cc2cc(Cl)ccc2[nH]1` [Compound 179], the “IDO cellular assay (SKOV3) pIC50” value at IDO (SKOV-3 cells) is “++ (++ = pIC50 5.00-<5.50)”. Also, the “TDO cellular assay (A172) pIC50” value at TDO (A172 cells) is reported as “− (− = pIC50 <4.50)”.

For the compound `C[C@@H](NC(=O)c1cc2ccc(C(F)F)cc2[nH]1)c1ccccc1` [Compound 180], the “IDO cellular assay (SKOV3) pIC50” value on IDO (SKOV-3 cells) is given as “+ (+ = pIC50 4.50-<5.00)”. In addition, the “TDO cellular assay (A172) pIC50” value at TDO (A172 cells) is listed as “− (− = pIC50 <4.50)”.

In the case of `C[C@@H](NC(=O)c1cc2cc(O)ccc2[nH]1)c1ccccc1` [Compound 181], the “IDO cellular assay (SKOV3) pIC50” value on IDO (SKOV-3 cells) is “+ (+ = pIC50 4.50-<5.00)”. Further, on TDO (A172 cells), the “TDO cellular assay (A172) pIC50” value was “− (− = pIC50 <4.50)”.

For the compound `COc1ccc2[nH]c(C(=O)NC3(c4ccccc4)CC3)cc2c1` [Compound 182], at IDO (SKOV-3 cells), the “IDO cellular assay (SKOV3) pIC50” value is “+++ (+++ = pIC50 ≥5.50)”. Also, at TDO (A172 cells), the “TDO cellular assay (A172) pIC50” value is on record as “− (− = pIC50 <4.50)”.

`C[C@@H](NC(=O)c1cc2c(F)c(Cl)ccc2[nH]1)c1ccccc1` [Compound 183]: the “IDO cellular assay (SKOV3) pIC50” value at IDO (SKOV-3 cells) is “+++ (+++ = pIC50 ≥5.50)”. Further, the “TDO cellular assay (A172) pIC50” value on TDO (A172 cells) is on record as “+ (+ = pIC50 4.50-<5.00)”.

For the compound `Cc1nnc(C(C)NC(=O)c2cc3cc(Cl)ccc3[nH]2)o1` (centres unmarked) [Compound 184], the “IDO cellular assay (SKOV3) pIC50” value at IDO (SKOV-3 cells) is “++ (++ = pIC50 5.00-<5.50)”. The “TDO cellular assay (A172) pIC50” value at TDO (A172 cells) was “− (− = pIC50 <4.50)”.

With `C[C@@H](NC(=O)c1cc2ccc(O)cc2[nH]1)c1ccccc1` [Compound 185], at IDO (SKOV-3 cells), the “IDO cellular assay (SKOV3) pIC50” value is “+ (+ = pIC50 4.50-<5.00)”. Besides, the “TDO cellular assay (A172) pIC50” value on TDO (A172 cells) is “+ (+ = pIC50 4.50-<5.00)”.

With `COc1ccc2[nH]c(C(=O)NC(C)c3cnn(C)c3)cc2c1` (centres unmarked) [Compound 186], the “IDO cellular assay (SKOV3) pIC50” value on IDO (SKOV-3 cells) is “+++ (+++ = pIC50 ≥5.50)”. Further, at TDO (A172 cells), the “TDO cellular assay (A172) pIC50” value is recorded as “− (− = pIC50 <4.50)”.

In the case of `O=C(NC1(c2ccccc2)CC1)c1cc2cc(O)ccc2[nH]1` [Compound 187], on IDO (SKOV-3 cells), the “IDO cellular assay (SKOV3) pIC50” value is given as “+ (+ = pIC50 4.50-<5.00)”. In addition, the “TDO cellular assay (A172) pIC50” value on TDO (A172 cells) is given as “− (− = pIC50 <4.50)”.

For `O=C(NC1(c2ccccc2)CC1)c1cc2cc(Cl)cc(F)c2[nH]1` [Compound 188], the “IDO cellular assay (SKOV3) pIC50” value on IDO (SKOV-3 cells) is “+++ (+++ = pIC50 ≥5.50)”. Further, the “TDO cellular assay (A172) pIC50” value on TDO (A172 cells) was “+ (+ = pIC50 4.50-<5.00)”.

Regarding `O=C(NC1(c2ccccc2)CC1)c1cc2ccc(C(F)F)cc2[nH]1` [Compound 189], the “IDO cellular assay (SKOV3) pIC50” value at IDO (SKOV-3 cells) is reported as “++ (++ = pIC50 5.00-<5.50)”. Also, the “TDO cellular assay (A172) pIC50” value at TDO (A172 cells) is reported as “− (− = pIC50 <4.50)”.

Regarding `CS(=O)(=O)Nc1ccc2cc(C(=O)NC3(c4ccccc4)CC3)[nH]c2c1` [Compound 190], the “IDO cellular assay (SKOV3) pIC50” value on IDO (SKOV-3 cells) is given as “+ (+ = pIC50 4.50-<5.00)”. At TDO (A172 cells), the “TDO cellular assay (A172) pIC50” value is “− (− = pIC50 <4.50)”.

On to `Cn1cc(C2(NC(=O)c3cc4c(F)c(Cl)ccc4[nH]3)CC2)cn1` [Compound 191], for which, at IDO (SKOV-3 cells), the “IDO cellular assay (SKOV3) pIC50” value was “+++ (+++ = pIC50 ≥5.50)”. The “TDO cellular assay (A172) pIC50” value at TDO (A172 cells) was “− (− = pIC50 <4.50)”.

Consider `CC(NC(=O)c1cc2ccc(C(F)F)cc2[nH]1)c1cnn(C)c1` (centres unmarked) [Compound 192], for which, at IDO (SKOV-3 cells), the “IDO cellular assay (SKOV3) pIC50” value is given as “+ (+ = pIC50 4.50-<5.00)”. Moreover, at TDO (A172 cells), the “TDO cellular assay (A172) pIC50” value is reported as “− (− = pIC50 <4.50)”.

As to `CC(NC(=O)c1cc2c(F)c(Cl)ccc2[nH]1)c1cnn(C)c1` (centres unmarked) [Compound 193], on IDO (SKOV-3 cells), the “IDO cellular assay (SKOV3) pIC50” value was “+++ (+++ = pIC50 ≥5.50)”. In addition, on TDO (A172 cells), the “TDO cellular assay (A172) pIC50” value is reported as “− (− = pIC50 <4.50)”.

As to `O=C(NC1(c2ccccc2)CC1)c1cc2c(F)c(Cl)ccc2[nH]1` [Compound 194], the “IDO cellular assay (SKOV3) pIC50” value at IDO (SKOV-3 cells) was “+++ (+++ = pIC50 ≥5.50)”. In addition, at TDO (A172 cells), the “TDO cellular assay (A172) pIC50” value is reported as “− (− = pIC50 <4.50)”.

Consider `COCCn1cc(C(C)NC(=O)c2cc3cc(Cl)ccc3[nH]2)cn1` (centres unmarked) [Compound 195], for which the “IDO cellular assay (SKOV3) pIC50” value at IDO (SKOV-3 cells) is on record as “++ (++ = pIC50 5.00-<5.50)”. At TDO (A172 cells), the “TDO cellular assay (A172) pIC50” value was “− (− = pIC50 <4.50)”.

Regarding `Cn1cc(C2(NC(=O)c3cc4ccc(O)cc4[nH]3)CC2)cn1` [Compound 196], at IDO (SKOV-3 cells), the “IDO cellular assay (SKOV3) pIC50” value is “+ (+ = pIC50 4.50-<5.00)”. The “TDO cellular assay (A172) pIC50” value at TDO (A172 cells) is “− (− = pIC50 <4.50)”.

On to `COCCn1cc(C(C)NC(=O)c2cc3cc(C#N)ccc3[nH]2)cn1` (centres unmarked) [Compound 197], for which the “IDO cellular assay (SKOV3) pIC50” value on IDO (SKOV-3 cells) is reported as “+ (+ = pIC50 4.50-<5.00)”. Further, the “TDO cellular assay (A172) pIC50” value on TDO (A172 cells) is reported as “− (− = pIC50 <4.50)”.

For `Cc1c(C2(NC(=O)c3cc4cc(Cl)ccc4[nH]3)CC2)cnn1C` [Compound 198], at IDO (SKOV-3 cells), the “IDO cellular assay (SKOV3) pIC50” value is listed as “+++ (+++ = pIC50 ≥5.50)”. Further, the “TDO cellular assay (A172) pIC50” value at TDO (A172 cells) was “− (− = pIC50 <4.50)”.

Take `Cc1noc(C(C)NC(=O)c2cc3cc(Cl)ccc3[nH]2)n1` (centres unmarked) [Compound 199]: the “IDO cellular assay (SKOV3) pIC50” value at IDO (SKOV-3 cells) was “+++ (+++ = pIC50 ≥5.50)”. Also, the “TDO cellular assay (A172) pIC50” value at TDO (A172 cells) is given as “− (− = pIC50 <4.50)”.

`Cc1nc(C(C)NC(=O)c2cc3cc(Cl)ccc3[nH]2)co1` (centres unmarked) [Compound 200]: at IDO (SKOV-3 cells), the “IDO cellular assay (SKOV3) pIC50” value was “+++ (+++ = pIC50 ≥5.50)”. In addition, on TDO (A172 cells), the “TDO cellular assay (A172) pIC50” value was “− (− = pIC50 <4.50)”.
